Reference: ChEMBL document CHEMBL5500362, “Benzothiazole derivatives as histone deacetylase inhibitors for the treatment of autosomal dominant polycystic kidney disease” (Eur J Med Chem, 2024)
Active and inactive are the calls of the source. The rule behind the calls is not given here.

Assays:
HeLa = details: Homo sapiens, dose 100.0 nM, time 15.0 min;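 also: HDAC inhibition in HeLa cells, read on a microplate reader using an acetylated peptide AMC substrate, expressed relative to control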
Mus musculus [1] = experiment: Inhibition of renal cystogenesis in PKD1 knockout ADPKD C57BL/6 mouse assessed as reduction kidney to body weight ratio index at 1 mg/kg, sc administered once daily for 1 week (19.5 +/-0.5%); type: functional; set-up: scale not given: the % may be the effect or the level left; details: time 1 weeks
Mus musculus [2] = experiment: Inhibition of renal cystogenesis in PKD1 knockout ADPKD C57BL/6 mouse assessed as reduction in renal cyst formation at 1 mg/kg, sc administered once daily for 1 week by H and E staining based analysis; type: functional, organism-based; details: time 1.0 weeks
MDCK [3] = experiment: Antiproliferative activity against MDCK cells at 0.3 to 1 uM by Hoechst 33342 and EdU staining based analysis; type: functional, cell-based; details: Canis lupus familiaris, dose 0.3-1 µM
MDCK [4] = experiment: Upregulation of acetylation of alpha tubulin level in MDCK cells incubated for 24 hrs by Western blot analysis; type: functional, cell-based; details: Canis lupus familiaris, dose 0.3-1 µM
Kidney = experiment: Ex vivo inhibition of renal cystogenesis in wild type C57BL/6 mouse kidney assessed as suppression of 8-Br-cAMP-induced cyst development at 1 uM treated for 6 days by inverted microscopic analysis; type: functional, tissue-based; details: time 6.0 day
[5] = AUC (0 to t) in C57BL/6 mouse at 1 mg/kg, sc by LC-MS/MS analysis; type: ADME, organism-based; details: in vivo
Mus musculus [6] = experiment: Inhibition of renal cystogenesis in PKD1 knockout ADPKD C57BL/6 mouse assessed as increase in renal parenchyma at 1 mg/kg, sc administered once daily for 1 week by H and E staining based analysis; type: functional, organism-based; details: time 1.0 weeks
Mus musculus [7] = experiment: Inhibition of renal cystogenesis in PKD1 knockout ADPKD C57BL/6 mouse assessed as decrease in kidney size at 1 mg/kg, sc administered once daily for 1 week by H and E staining based analysis; type: functional, organism-based; details: time 1.0 weeks
MDCK [8] = experiment: Cytotoxicity against MDCK cells at 0.3 to 1 uM by CCK-8 assay; type: toxicity, cell-based, Canis lupus familiaris; details: dog, dose 0.3-1 µM
[9] = Terminal elimination half life in C57BL/6 mouse at 1 mg/kg, sc by LC-MS/MS analysis; type: ADME, organism-based; details: in vivo, read-out: LambdaZ (converted)
[10] = Cmax in C57BL/6 mouse at 1 mg/kg, sc by LC-MS/MS analysis; type: ADME, organism-based; details: in vivo
Mus musculus [11] = experiment: Inhibition of renal cystogenesis in PKD1 knockout ADPKD C57BL/6 mouse assessed as reduction in kidney size at 1 mg/kg, sc administered once daily for 1 week; type: functional, organism-based; details: time 1.0 weeks
[12] = Half life in C57BL/6 mouse at 1 mg/kg, sc by LC-MS/MS analysis; type: ADME, organism-based; details: in vivo
MDCK [13] = experiment: Inhibition of colony formation in MDCK cells measured after 8 days by crystal violet staining based analysis; type: functional, cell-based; details: Canis lupus familiaris, dose 0.3-1 µM, time 8.0 day
[14] = Tmax in C57BL/6 mouse at 1 mg/kg, sc by LC-MS/MS analysis; type: ADME, organism-based; details: in vivo
MDCK [15] = experiment: Inhibition of cystogenesis in PKD1 knockout ADPKD MDCK cells assessed as inhibition of cyst formation at 0.3 to 1 uM; type: functional, cell-based; details: Canis lupus familiaris, dose 0.3-1 µM, time 4-10 day, TDE = time-dependent effect
[16] = AUC (0 to infinity) in C57BL/6 mouse at 1 mg/kg, sc by LC-MS/MS analysis; type: ADME, organism-based; details: in vivo

Row | SMILES | inhibition (HeLa) | further results
1 | O=C(CCCCCCOc1ccc(-c2nc3ccccc3s2)cc1Cl)NO | 18.3% | 
2 | O=C(CCCOc1cccc(-c2nc3ccccc3s2)c1)NO | 41.2% | 
3 | O=C(CCCOc1ccc(-c2nc3ccccc3s2)cc1)NO | 3.33% | 
4 | O=C(CCCCCCOc1cccc(-c2nc3ccccc3s2)c1)NO | 76.8% | 
5 | Cc1cc(-c2nc3ccccc3s2)ccc1OCCCCCCC(=O)NO | 39.3% | 
6 | O=C(COc1cccc(-c2nc3ccccc3s2)c1)NO | 66.5% | 
7 | COc1ccc(-c2nc3ccc(C)cc3s2)cc1OCCCCCCC(=O)NO | 67.8% | 
8 | O=C(CCCCCCCOc1ccc(-c2nc3ccccc3s2)cc1)NO | 9.17% | 
9 | COc1cc(-c2nc3ccccc3s2)cc(OC)c1OCCCCCCC(=O)NO | 81.7% | 
10 | COc1ccc(-c2nc3ccccc3s2)cc1OCCCCCCCC(=O)NO | 28.2% | 
11 | O=C(CCCCCCOc1cccc(-c2nc3ccccc3s2)c1Cl)NO | 62% | 
12 | CCOc1cc(-c2nc3ccccc3s2)ccc1OCCCCCCC(=O)NO | 75% | 
13 | COc1ccc(-c2nc3cc(Cl)ccc3s2)cc1OCCCCCCC(=O)NO | 37.2% | 
14 | O=C(CCCCCCCOc1cccc(-c2nc3ccccc3s2)c1)NO | 65.3% | 
15 | O=C(CCCCCCOc1cccc(-c2nc3ccccc3s2)c1F)NO | 68.7% | 
16 | Cc1ccccc1C(=O)Nc1ccc(C(=O)N2CCCC(O)c3cc(Cl)ccc32)c(C)c1 (configuration not stated) [TOLVAPTAN] |  | Activity (Mus musculus [1]): 15.8%
17 | O=C(COc1ccc(-c2nc3ccccc3s2)cc1)NO | 34.8% | 
18 | O=C(CCCCCOc1ccc(-c2nc3ccccc3s2)cc1)NO | 26.8% | 

Row | SMILES | inhibition (HeLa) | further results
19 | Cc1ccc2nc(-c3ccc(OCCCCCCC(=O)NO)cc3)sc2c1 | 52.3% | 
20 | O=C(CCCCCOc1cccc(-c2nc3ccccc3s2)c1)NO | 76.7% | 
21 | O=C(CCCCCCOc1ccc(-c2nc3ccccc3s2)c(Cl)c1)NO | 33.2% | 
22 | O=C(CCCCCCOc1ccc(-c2nc3ccc(Cl)cc3s2)cc1)NO | 21.7% | 
23 | O=C(CCCCCCOc1ccc(-c2nc3cc(Cl)ccc3s2)cc1)NO | 42.7% | 
24 | COc1ccc2nc(-c3ccc(OC)c(OCCCCCCC(=O)NO)c3)sc2c1 | 80.3% | 
25 | O=C(CCCCCCOc1ccc(-c2nc3ccc(F)cc3s2)cc1)NO | 61.2% | 
26 | O=C(CCCCCCOc1ccc(-c2nc3ccccc3s2)c(F)c1)NO | 83% | 
27 | O=C(CCCCCCOc1ccc(-c2nc3ccccc3s2)cc1F)NO | 46.2% | 
28 | COc1cc(-c2nc3ccccc3s2)ccc1OCCCCCCC(=O)NO | 74.2% | 
29 | O=C(CCCCCCOc1ccc(-c2nc3ccccc3s2)cc1)NO | 84.2% | 
30 | O=C(CCCCOc1cccc(-c2nc3ccccc3s2)c1)NO | 45.7% | 
31 | COc1ccc2nc(-c3ccc(OCCCCCCC(=O)NO)cc3)sc2c1 | 51.7% | 
32 | O=C(CCCCOc1ccc(-c2nc3ccccc3s2)cc1)NO | 56% | 
33 | COc1ccc(-c2nc3ccc(Cl)cc3s2)cc1OCCCCCCC(=O)NO | 44.5% | 
34 | COc1ccc(-c2nc3ccccc3s2)cc1OCCCCCCC(=O)NO | 88% | Activity (Mus musculus [2]): Active; Activity (MDCK [3]): Active; Activity (MDCK [4]): Dose-Dependent Effect; Activity (Kidney): Active; AUC(0-t) [5]: 597 ng·h/mL; Activity (Mus musculus [6]): Active; Activity (Mus musculus [7]): Active; Activity (MDCK [8]): Non-Toxic; k el [9]: 3.61e-05 s⁻¹; Cmax [10]: 572 ng/mL; Activity (Mus musculus [11]): Active; half-life [12]: 5.75 h; inhibition (MDCK [13]): Dose-Dependent Effect; Tmax [14]: 0.25 h; Activity (Mus musculus [1]): 14.2%; inhibition (MDCK [15]): Tde; AUC(0-inf) [16]: 614 ng·h/mL
35 | COc1ccc(-c2nc3ccc(F)cc3s2)cc1OCCCCCCC(=O)NO | 77.3% | 
